These are literature values, as cited in article PMC11734723 (Science Advances, 2025).

Data set [1] relates to RANKL-induced osteoclast differentiation. Conditions: cited from earlier work.
For data set [2], the system named is collagen-induced arthritis (CIA) mouse model. The following applies: administered beginning at the time of arthritis induction; cited from earlier work.
A further data set concerns Orai channels. Conditions: cited from earlier work.

Each structure is given as a SMILES string.

`CCC(=O)Nc1ccc(Cl)c(Cl)c1` [3,4-dichloropropionanilide]: in data set [1] (100 nM), the “inhibition of RANKL-induced osteoclastogenesis” value is “failed to inhibit”. Moreover, the “formation of bone-degrading osteoclasts” value in data set [1] (in vitro) is on record as “reduced”. Moreover, the “concentration needed to block RANKL-induced osteoclast differentiation” value in data set [1] (in vitro, not blocked at concentrations below this) was ≥ 10 µM. For the same compound, the effect on arthritis result in data set [2] is reported as “reduces arthritis”. In the data set on Orai channels, the “effect on Orai channels” value is recorded as “inhibits”.
